In patent publication US8227232B2, “Thermostable L-ribose isomerase and method for producing same and use of same” (National University Corporation Kagawa Univeristy, priority 2006, dated 2012):

Assays:
[1] = system: thermostable L-ribose isomerase from Raoultella ornithinolytica; assay: Confirmation of enzyme reaction product by HPLC; assay type: biochemical; conditions: 50 mM substrate, crude enzyme solution, 40° C., 24 hours
Procedure: A crude enzyme solution (0.65 U/ml) was recovered after culturing in a culture medium with 0.1% D-lyxose in 2% TSB, at 37° C. for 2 days and ultrasonication for extraction; 150 μl of the crude enzyme solution reacted with 50 mM of a substrate including individual ketose types such as L-ribose, D-fructose, D-tagatose and L-psicose at 40° C. for 24 hours. After reaction, the enzyme was inactivated under heating in hot water for 2 minutes, and centrifuged at 12,000 rpm for 5 minutes to recover the supernatant. Then, about 2 spoonfuls of a desalted resin (mixed and dried at a ratio of IRA411:SKIB=2:1) in a microspatula were added to the resulting supernatant, for mixing under inversion. After one hour, the solution was filtered through a 0.45-μm filter, for high-performance liquid chromatography (HPLC). As the column, Hitachi HPLC column GL-C611 (manufactured by Hitachi Chemical Industry Co., Ltd.) was used; as the detector, a differential refractive meter (L-7490 refractive index detector manufactured by Hitachi Hightech Co., Ltd.) was used. While the column was retained at 60° C., 10^−4 M sodium hydroxide solution as an eluent was used at a flow rate of 1.0 mL/min. The resulting signals were collected and analyzed with a data analysis software (SmartChrom, manufactured by KYA Technologies Co., Ltd.).

[2] = system: thermostable L-ribose isomerase derived from Raoultella ornithinolytica; assay: L-ribose isomerase activity assay on various aldose substrates (cysteine/carbazole method); assay type: biochemical; conditions: aldose as substrate; for relative activity to the activity on L-ribose: activity on L-ribose designated as 100%
Procedure: The activity of the L-ribose isomerase of the invention can be assayed as follows. 0.05 ml of 0.05 M glycine-NaOH buffer (pH 9.0), 0.05 ml of 0.05 M L-ribose and the enzyme solution were mixed together to a total volume of 0.5 ml, for the enzyme reaction at 45° C., to generate L-ribulose, which is assayed by the cysteine/carbazole method. One unit of the enzyme activity is designated as the enzyme amount to generate 1 μmol of L-ribulose per one minute.
Using 50 mM L-ribose as a substrate, the enzyme reaction continued at 45° C. for 10 minutes, so that the amount of the generated ketose (L-ribulose) was assayed by the cysteine/carbazole method. As to the temperature stability, the enzyme activity was assayed after 10-min treatment at individual temperatures. As to the optimal pH conditions, the enzyme reaction was performed at 45° C. for 10 minutes in 50 mM acetate buffer (pH 2 to 6), 50 mM sodium phosphate buffer (pH 6 to 8), 50 mM Tris-HCl buffer (pH 8 to 9) or 50 mM glycine-sodium hydroxide buffer (pH 9 to 11), using 50 mM L-ribose as substrate, to assay the amount of a ketose (L-ribulose) generated thereafter by the cysteine/carbazole method (Table 2). The enzyme reaction was done at the composition shown in Table 2 at 45° C. for 10 minutes (Table 3), and the reaction was terminated by adding 50 μl of 10% TCA (trichloroacetic acid). […] After completion of the reaction, absorbance at 540 nm was measured with an ultraviolet/visible spectrophotometer V530 (JASCO Corporation). Additionally, the amount of the enzyme generating 1 μmol L-ribulose per one minute was designated as one unit.
According to the assay method of the activity, the activity of the enzyme was assayed, using various aldose types as substrates. The activities on various aldose types are shown in relative activities to the activity on L-ribose, which is designated as 100%.

Row | Structure (SMILES) | product generated from the substrate [1] | relative activity to the activity on L-ribose [2] [%] | activity of the enzyme for the substrate (in words) [2]
1 | O=C(CO)[C@@H](O)[C@H](O)[C@H](O)CO [D-fructose] | D-mannose is generated |  | 
2 | O=C[C@@H](O)[C@@H](O)[C@@H](O)[C@@H](O)CO [L-allose] |  | 2.2 | exerted activities
3 | O=C[C@@H](O)[C@@H](O)[C@H](O)CO [D-lyxose] |  | 15.3 | exerted activities
4 | O=C[C@H](O)[C@@H](O)[C@H](O)[C@H](O)CO [D-glucose] |  |  | never exerts any activities
5 | O=C(CO)[C@@H](O)[C@@H](O)[C@@H](O)CO [L-psicose] | L-allose is generated |  | 
6 | O=C[C@@H](O)[C@@H](O)[C@@H](O)[C@H](O)CO [D-tallose] |  | 56.9 | exerted activities
7 | O=C[C@@H](O)[C@@H](O)[C@H](O)[C@H](O)CO [D-mannose] |  |  | exerted activities
8 | O=C[C@@H](O)[C@H](O)[C@H](O)[C@H](O)CO [D-altrose] |  |  | never exerts any activities
9 | O=C(CO)[C@@H](O)[C@@H](O)[C@H](O)CO [D-tagatose] | D-tallose is generated |  | 
10 | O=C[C@@H](O)[C@@H](O)[C@@H](O)CO [L-ribose] | L-ribulose is generated | 100 | highest activity
11 | O=C[C@H](O)[C@H](O)[C@H](O)[C@H](O)CO [D-allose] |  |  | never exerts any activities
